How the values were obtained:
Type in all cases: cell-based
Staphylococcus aureus = test: Contact germicidal screen, Staphylococcus aureus ATCC No. 6538
Protocol: (§1) The organisms used in the contact germicidal screen are all maintained as stock cultures on nutrient agar […] 4° C. They are transferred and biochemically diagnosed monthly. The five organisms used are: The media used are: […] Overnight cultures of the test organisms are grown in tryptose phosphate broth. After 15-16 hours, the cultures are centrifuged at […] for 15 minutes, and the supernatant replaced with fresh warm (37° C.) media. After two hours of incubation, the absorbance of the culture at 650 nm is determined and diluted with nutrient broth to 1×10^7 colony forming units per ml (using a previous determined standard curve: colony forming units/ml vs. absorbance at 650). The diluted cultures are maintained at 4°-8° C. throughout the screen. The compounds are weighed into sterile 100 ml volumetric flasks, and immediately before screening dissolved in one of the following buffers: 0.1 M NaOAc pH 4.6 or 0.1 M NaH2 PO4 pH 7.0. If solubility poses a problem, 10-30% methanol is used to effect solution. Two denaturing agents are also tested: […] Horse Serum restored with 100 ml distilled water and 10% Trition×100. When used, 2.5 ml of the denaturing agent is mixed with 2.5 ml of double strength test solution thirty minutes before the bacterial suspension is added. The screen is initiated when 0.2 ml of the bacterial suspension is added to 5.0 ml of the test solution contained in a sterile 25 ml glass stoppered flask. At intervals of 0.5, 2.5, 5.0, 10.0 and 15.0 minutes, a loopful of the inoculated test solution is subcultured into 5 ml of sterile nutrient broth and mixed with a vortex, the high dilution serving to stop the action of the compound. All of the subculture tubes are incubated at 37° C. and checked for signs of growth by turbidity at 1, 3, 5 and 7 days. The earliest subculture time at which no growth is present is considered the endpoint and is recorded as the sterilization time. An aliquot of 0.2 ml of the diluted culture is transferred to 5 ml of buffer to simulate 0.2 ml in 5 ml of test solution. (a) Purity: A loopful of the inoculated buffer is streaked onto nutrient agar to check colony morphology and lack of contaminants. (b) Viability: A loopful of the inoculated buffer is subcultured to 5 ml of nutrient broth as in the screen and incubated at 37° C. for 24 hours. (c) Dilution of the Test Solution: A loopful of the test solution is transferred to a 5 ml tube of nutrient broth, and a loopful of the inoculated buffer is transferred to the same tube of broth. […] (d) Purity of Organisms in the Test Solution: After the 15 minute subculture, a loopful of the inoculated test solution is streaked onto nutrient agar to insure that contamination has not occurred during the screen. (e) lack of Bactericidal Activity of Buffers and Other Solvents: Before a buffer or other solvent is used as a diluent, it is screened against the five organisms to insure that the buffer or solvent has no antibacterial activity itself.

Salmonella typhimurium = test: Contact germicidal screen, Salmonella typhimurium ATCC No. 13311
Protocol: as §1

Rhizopus oryzae = test: Contact fungicidal screen, Rhizopus oryzae; conditions: 0.1M NaOAc pH 4.6
Protocol: The organisms used in the Contact Fungicidal Screen are a dermatophyte, trychophyton mentagrophytes, frequently associated with athlete's foot; a yeast, Candida albican, causative agent of thrush and vaginitis; a phycomycete, Rhizopus oryzae, commonly known as black bread mold; an ascomycete, Aspergillus fumagatis, found in chicken droppings and causing lung infections; and another dermatophyte, Microsporum canis, which causes ringworm. These organisms are maintained as stock cultures at 4° C. on agar slants of the following composition: dextrose 2%, Neopeptone (Difco) 1%, agar 2%. Fluid medium of the same nutrient composition (without agar) was used to test the viability of the organisms after exposure to the fungicide. This medium is also known as Sabouraud's medium.
[…]. The mycelial mat is removed from the surface of the agar using a sterile spatula. It is transferred to a heat sterilized glass tissue grinder and macerated with 25 ml of sterile physiological saline. The suspension is then filtered through sterile glass wool. The density of the sporangia spore suspension is determined by counting in a hemacytometer. The suspension is stored at 4° C. until it was used, at which time it was diluted with sterile physiological saline to a density of 5×10^6 spores per ml.
The compounds are weighed into heat sterilized 100 ml volumetric flasks and immediately before screening dissolved in 0.1 M NaOAc pH 4.6 buffer (test solutions).
The Aspergillus, Candida, Microsporum and Rhizopus species are screened in a slightly different manner. Basically, the procedure for the Contact Germicidal Efficiency Screen is utilized. After the test solutions are made up, 5 ml aliquots are pipetted into heat sterilized 25 ml glass stoppered erlenmeyer flasks. The screen is initiated when 0.5 ml of the 5×10^6 cell (spore) per ml suspension is added to the flask containing 5 ml of the test solution. At intervals of 0.5, 2.5, 5.0, 10.0 and 15.0 minutes, a 4 mm loopful of the inoculated test solution is subcultured into 7 mL of sterile fluid Sabouraud's medium and mixed on a vortex, the high dilution serving to stop the action of the compound. The subculture tubes are incubated at 25°-30° C. for ten days with daily observation for mycelial growth. The earliest subculture time at which no growth is present is considered the endpoint and is recorded as the sterilization time.
To insure the viability of the culture, a 0.5 ml aliquot of the 5×10^6 cells (spores) per ml suspension is transferred to 5 ml of the pH 4.6 buffer. A loopful of the inoculated buffer is then subcultured to 7 ml of fluid Sabouraud's medium and incubated at 25°-30° C. for ten days. To insure that the dilution of the test solution into the subculture medium does stop the action, a loopful of the test solution and a loopful of the inoculated buffer are transferred into the same subculture tube. This tube is also incubated at 25°-30° C. for ten days.

[1] = 10.0+ PPM, 0.1M NaOAc pH 4.6, screened simultaneously with four other compounds
[2] = 300 PPM with 50% Horse Serum, 0.1M NaOAc pH 4.6
[3] = 300 PPM with 50% Triton X100, 0.1M NaOAc pH 4.6
[4] = 308.0 PPM, Triton X100 (10% solution):pH 4.6 buffer 1:1
[5] = 308.0 PPM, horse serum:pH 4.6 buffer 1:1
[6] = 1000 PPM with 50% Horse Serum, 0.1M NaOAc pH 4.6
[7] = 1000.0 PPM, horse serum:pH 4.6 buffer 1:1
[8] = 1012.3 PPM, 0.1M NaH2PO4 pH 7.0
[9] = 338.7 PPM, horse serum:pH 4.6 buffer 1:1
[10] = 1024.0 PPM, horse serum:pH 4.6 buffer 1:1
[11] = 1070.3 PPM, 0.1M NaH2PO4 pH 7.0

CC(C)(CCC(=O)O)N(Cl)Cl [(III), 4-Dichloroamino-4-methylvaleric acid]
Sterilization Time (Staphylococcus aureus; 9.6 PPM, 0.1M NaOAc pH 4.6): 10.0 min
Sterilization Time (Staphylococcus aureus; 9.7 PPM, 0.1M NaH2PO4 pH 7.0): 15 min
Sterilization Time (Staphylococcus aureus; [1]): 5.0 min
Sterilization Time (summary) (Staphylococcus aureus; 10 PPM, 0.1M NaOAc pH 4.6): 5.0 min
Sterilization Time (summary) (Staphylococcus aureus; 100 PPM, 0.1M NaOAc pH 4.6): 2.5 min
Sterilization Time (Staphylococcus aureus; 102.2 PPM, 0.1M NaOAc pH 4.6): 2.5 min
Sterilization Time (Staphylococcus aureus; 103.5 PPM, 0.1M NaH2PO4 pH 7.0): 15 min
Sterilization Time (summary) (Staphylococcus aureus; [2]): 5.0 min
Sterilization Time (summary) (Staphylococcus aureus; [3]): 2.5 min
Sterilization Time (Staphylococcus aureus; [4]): 2.5 min
Sterilization Time (Staphylococcus aureus; [5]): 5.0 min
Sterilization Time (summary) (Staphylococcus aureus; [6]): 0.5 min
Sterilization Time (summary) (Staphylococcus aureus; 1000 PPM, 0.1M NaOAc pH 4.6): 0.5 min
Sterilization Time (Staphylococcus aureus; [7]): 0.5 min
Sterilization Time (Staphylococcus aureus; 1007.7 PPM, 0.1M NaOAc pH 4.6): 0.5 min
Sterilization Time (Staphylococcus aureus; [8]): 5.0 min
Sterilization Time (Salmonella typhimurium; 9.6 PPM, 0.1M NaOAc pH 4.6): 2.5 min
Sterilization Time (Salmonella typhimurium; 9.7 PPM, 0.1M NaH2PO4 pH 7.0): 15 min
Sterilization Time (Salmonella typhimurium; [1]): 2.5 min
Sterilization Time (summary) (Salmonella typhimurium; 10 PPM, 0.1M NaOAc pH 4.6): 2.5 min
Sterilization Time (summary) (Salmonella typhimurium; 100 PPM, 0.1M NaOAc pH 4.6): 0.5 min
Sterilization Time (Salmonella typhimurium; 102.2 PPM, 0.1M NaOAc pH 4.6): 0.5 min
Sterilization Time (Salmonella typhimurium; 103.5 PPM, 0.1M NaH2PO4 pH 7.0): 5.0 min
Sterilization Time (summary) (Salmonella typhimurium; [2]): 2.5 min
Sterilization Time (summary) (Salmonella typhimurium; [3]): 0.5 min
Sterilization Time (Salmonella typhimurium; [4]): 0.5 min
Sterilization Time (Salmonella typhimurium; [5]): 2.5 min
Sterilization Time (summary) (Salmonella typhimurium; [6]): 0.5 min
Sterilization Time (summary) (Salmonella typhimurium; 1000 PPM, 0.1M NaOAc pH 4.6): 0.5 min
Sterilization Time (Salmonella typhimurium; [7]): 0.5 min
Sterilization Time (Salmonella typhimurium; 1007.7 PPM, 0.1M NaOAc pH 4.6): 0.5 min
Sterilization Time (Salmonella typhimurium; [8]): 0.5 min
Sterilization Time (Rhizopus oryzae; 10 PPM): 15 min
Sterilization Time (Rhizopus oryzae; 100 PPM): 15 min
Sterilization Time (Rhizopus oryzae; 1000 PPM): 10.0 min

CC(C)(COC(=O)CCC(=O)O)N(Cl)Cl [(IV), 2-Dichloroamino-2-methylpropylhemisuccinate]
Sterilization Time (Staphylococcus aureus; 8.6 PPM, 0.1M NaOAc pH 4.6): 15.0 min
Sterilization Time (Staphylococcus aureus; 9.8 PPM, 0.1M NaH2PO4 pH 7.0): 15 min
Sterilization Time (Staphylococcus aureus; [1]): 15 min
Sterilization Time (summary) (Staphylococcus aureus; 10 PPM, 0.1M NaOAc pH 4.6): 15 min
Sterilization Time (summary) (Staphylococcus aureus; 100 PPM, 0.1M NaOAc pH 4.6): 2.5 min
Sterilization Time (Staphylococcus aureus; 106.2 PPM, 0.1M NaOAc pH 4.6): 2.5 min
Sterilization Time (Staphylococcus aureus; 149.7 PPM, 0.1M NaH2PO4 pH 7.0): 10.0 min
Sterilization Time (summary) (Staphylococcus aureus; [2]): 15.0 min
Sterilization Time (summary) (Staphylococcus aureus; [3]): 2.5 min
Sterilization Time (Staphylococcus aureus; [4]): 2.5 min
Sterilization Time (Staphylococcus aureus; [9]): 15.0 min
Sterilization Time (summary) (Staphylococcus aureus; [6]): 2.5 min
Sterilization Time (summary) (Staphylococcus aureus; 1000 PPM, 0.1M NaOAc pH 4.6): 0.5 min
Sterilization Time (Staphylococcus aureus; 1008.0 PPM, 0.1M NaOAc pH 4.6): 0.5 min
Sterilization Time (Staphylococcus aureus; [10]): 2.5 min
Sterilization Time (Staphylococcus aureus; [11]): 10.0 min
Sterilization Time (Salmonella typhimurium; 8.6 PPM, 0.1M NaOAc pH 4.6): 5.0 min
Sterilization Time (Salmonella typhimurium; 9.8 PPM, 0.1M NaH2PO4 pH 7.0): 15 min
Sterilization Time (Salmonella typhimurium; [1]): 2.5 min
Sterilization Time (summary) (Salmonella typhimurium; 10 PPM, 0.1M NaOAc pH 4.6): 2.5 min
Sterilization Time (summary) (Salmonella typhimurium; 100 PPM, 0.1M NaOAc pH 4.6): 0.5 min
Sterilization Time (Salmonella typhimurium; 106.2 PPM, 0.1M NaOAc pH 4.6): 0.5 min
Sterilization Time (Salmonella typhimurium; 149.7 PPM, 0.1M NaH2PO4 pH 7.0): 15.0 min
Sterilization Time (summary) (Salmonella typhimurium; [2]): 10.0 min
Sterilization Time (summary) (Salmonella typhimurium; [3]): 0.5 min
Sterilization Time (Salmonella typhimurium; [4]): 0.5 min
Sterilization Time (Salmonella typhimurium; [9]): 10.0 min
Sterilization Time (summary) (Salmonella typhimurium; [6]): 2.5 min
Sterilization Time (summary) (Salmonella typhimurium; 1000 PPM, 0.1M NaOAc pH 4.6): 0.5 min
Sterilization Time (Salmonella typhimurium; 1008.0 PPM, 0.1M NaOAc pH 4.6): 0.5 min
Sterilization Time (Salmonella typhimurium; [10]): 2.5 min
Sterilization Time (Salmonella typhimurium; [11]): 0.5 min
Sterilization Time (Rhizopus oryzae; 10 PPM): 15 min
Sterilization Time (Rhizopus oryzae; 100 PPM): 15 min
Sterilization Time (Rhizopus oryzae; 1000 PPM): 15 min
